This assay has as its target Receptor tyrosine-protein kinase erbB-4 (Homo sapiens) (UniProt Q15303). Put plainly: ERBB4 kinase inhibitors, dose response, biochemical, Z'-LYTE FRET, direct format, recombinant human (AID 1671295). To be noted: Z'-LYTE FRET kinase activity.

Molecules are shown by their SMILES.

Sequence of Receptor tyrosine-protein kinase erbB-4 (Homo sapiens) (Q15303 whole entry, looked up): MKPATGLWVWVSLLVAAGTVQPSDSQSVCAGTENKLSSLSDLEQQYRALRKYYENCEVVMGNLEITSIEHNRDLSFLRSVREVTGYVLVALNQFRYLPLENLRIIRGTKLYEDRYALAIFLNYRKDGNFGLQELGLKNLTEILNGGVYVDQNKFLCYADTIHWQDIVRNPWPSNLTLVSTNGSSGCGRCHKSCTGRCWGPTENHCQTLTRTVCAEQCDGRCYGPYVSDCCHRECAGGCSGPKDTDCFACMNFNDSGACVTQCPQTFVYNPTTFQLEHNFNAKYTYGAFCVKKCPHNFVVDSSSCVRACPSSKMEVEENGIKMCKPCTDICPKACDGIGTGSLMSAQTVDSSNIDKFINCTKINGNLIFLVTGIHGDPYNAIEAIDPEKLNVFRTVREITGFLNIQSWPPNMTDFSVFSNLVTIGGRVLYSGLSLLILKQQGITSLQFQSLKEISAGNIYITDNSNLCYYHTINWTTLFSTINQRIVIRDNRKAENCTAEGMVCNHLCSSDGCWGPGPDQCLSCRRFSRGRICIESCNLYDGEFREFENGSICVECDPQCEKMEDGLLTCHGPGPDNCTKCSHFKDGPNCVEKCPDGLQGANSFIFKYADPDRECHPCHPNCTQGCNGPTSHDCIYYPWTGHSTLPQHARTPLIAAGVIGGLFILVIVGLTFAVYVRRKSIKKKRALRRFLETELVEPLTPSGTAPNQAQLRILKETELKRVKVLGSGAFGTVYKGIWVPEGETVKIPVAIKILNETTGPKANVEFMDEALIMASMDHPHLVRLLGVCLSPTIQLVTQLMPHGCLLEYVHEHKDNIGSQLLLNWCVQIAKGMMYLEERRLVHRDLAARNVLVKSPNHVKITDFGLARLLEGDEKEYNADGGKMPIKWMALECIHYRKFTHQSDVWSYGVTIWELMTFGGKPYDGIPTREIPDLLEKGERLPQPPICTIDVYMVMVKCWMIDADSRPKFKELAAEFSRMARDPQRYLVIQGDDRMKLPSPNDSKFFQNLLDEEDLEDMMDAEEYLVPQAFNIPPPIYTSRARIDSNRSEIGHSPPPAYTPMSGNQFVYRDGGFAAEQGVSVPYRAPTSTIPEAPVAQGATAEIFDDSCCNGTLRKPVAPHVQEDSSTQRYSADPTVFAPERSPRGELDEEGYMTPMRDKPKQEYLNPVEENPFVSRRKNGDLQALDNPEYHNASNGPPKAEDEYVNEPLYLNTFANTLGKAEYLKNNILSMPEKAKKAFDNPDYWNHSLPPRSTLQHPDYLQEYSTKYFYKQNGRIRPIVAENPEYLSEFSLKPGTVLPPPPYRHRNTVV

The IC50 is the concentration that gives 50% inhibition. For `COc1cc2ncnc(Nc3cccc(Cl)c3)c2cc1OC`, the IC50 was 154 nM.

(Values after PubChem BioAssay AID1671295.)
